Biological target: Erk1 (Homo sapiens (Human), UniProt P27361)
Assay: Protein Mass Modification Assay (intact protein MALDI)
Type: binding
How it was run: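 Human Erk1 was incubated 60 min at room temperature with a 10-fold molar excess of compound, then analysed as intact protein by MALDI with sinapinic acid matrix. The centroid mass shift versus untreated protein was divided by compound molecular weight to give percent modified protein.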

Chain of Erk1 (P27361 whole entry, looked up): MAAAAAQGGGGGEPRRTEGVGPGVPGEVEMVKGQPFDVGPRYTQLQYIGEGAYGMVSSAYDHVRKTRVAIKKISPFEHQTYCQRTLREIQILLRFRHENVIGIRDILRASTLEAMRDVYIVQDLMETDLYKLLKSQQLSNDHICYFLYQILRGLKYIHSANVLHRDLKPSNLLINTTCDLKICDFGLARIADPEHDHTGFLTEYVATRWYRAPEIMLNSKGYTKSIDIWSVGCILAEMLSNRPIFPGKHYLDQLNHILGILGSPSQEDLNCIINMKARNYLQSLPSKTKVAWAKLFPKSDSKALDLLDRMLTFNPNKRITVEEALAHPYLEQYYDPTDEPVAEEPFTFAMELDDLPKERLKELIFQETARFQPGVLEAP

| Structure (SMILES) | ERK1 Mass Mod (%) |
| --- | --- |
| C=CS(=O)(=O)Nc1cc(C)ccc1Nc1nc(Nc2cc(OC)ncc2C)ncc1C(F)(F)F [Compound I-333, N-(2-((2-((2-methoxy-5-methylpyridin-4-yl)amino)-5-(trifluoromethyl)pyrimidin-4-yl)amino)-5-methylphenyl)ethenesulfonamide] | E (provided a mass modification of ≧70%) |
| C#CC(=O)Nc1cc(C)ccc1Nc1nc(Nc2cc(OC)ncc2C)ncc1C(F)(F)F [Compound I-345, N-(2-((2-((2-methoxy-5-methylpyridin-4-yl)amino)-5-(trifluoromethyl)pyrimidin-4-yl)amino)-5-methylphenyl)propiolamide] | E (provided a mass modification of ≧70%) |
| C=CC(=O)Nc1cc(OC)ccc1Nc1nc(Nc2ccc(N(CC)C(C)=O)cc2C#N)ncc1Cl [Compound I-164, N-(2-((5-chloro-2-((2-cyano-4-(N-ethylacetamido)phenyl)amino)pyrimidin-4-yl)amino)-5-methoxyphenyl)acrylamide] | E (provided a mass modification of ≧70%) |
| C=CC(=O)Nc1ccccc1Nc1nc(Nc2ccc(N3CCOCC3)cc2OC)ncc1C#N [Compound I-143, N-(2-((5-cyano-2-((2-methoxy-4-morpholinophenyl)amino)pyrimidin-4-yl)amino)phenyl)acrylamide] | F (provided a mass modification of 31-69%) |
| C=CC(=O)Nc1ccccc1Nc1nc(Nc2ccc(OCCCN3CCOCC3)cc2OC)ncc1C(N)=O [Compound I-254, 4-((2-acrylamidophenyl)amino)-2-((2-methoxy-4-(3-morpholinopropoxy)phenyl)amino)pyrimidine-5-carboxamide] | E (provided a mass modification of ≧70%) |
| C=CC(=O)Nc1ccc(C)cc1Nc1nc(NC2CCC(=O)CC2)ncc1C(F)(F)F [Compound I-39, N-(4-Methyl-2-((2-((4-oxocyclohexyl)amino)-5-(trifluoromethyl)pyrimidin-4-yl)amino)phenyl)acrylamide] | E (provided a mass modification of ≧70%) |
| C=CC(=O)Nc1ccccc1Nc1nc(Nc2cc(C(=O)NC)c(F)cc2C)ncc1C(F)(F)F [Compound I-80, 5-((4-((2-Acrylamidophenyl)amino)-5-(trifluoromethyl)pyrimidin-2-yl)amino)-2-fluoro-N,4-dimethylbenzamide] | E (provided a mass modification of ≧70%) |
| C=CC(=O)Nc1ccccc1Nc1nc(N[C@H]2CC[C@H](C(N)=O)CC2)ncc1Cl [Compound I-129, trans-4-((4-((2-acrylamidophenyl)amino)-5-chloropyrimidin-2-yl)amino)-cyclohexanecarboxamide] | E (provided a mass modification of ≧70%) |
| C=CC(=O)Nc1cc(C)ccc1Nc1nc(Nc2cc(OCC)ncc2C)ncc1C(F)(F)F [Compound I-358, N-(2-((2-((2-ethoxy-5-methylpyridin-4-yl)amino)-5-(trifluoromethyl)pyrimidin-4-yl)amino)-5-methylphenyl)acrylamide] | E (provided a mass modification of ≧70%) |
| C=CC(=O)Nc1ccccc1Nc1nc(Nc2cc(C(=O)NOC)ccc2C#N)ncc1C(F)(F)F [Compound I-72, 3-((4-((2-Acrylamidophenyl)amino)-5-(trifluoromethyl)pyrimidin-2-yl)amino)-4-cyano-N-methoxybenzamide] | E (provided a mass modification of ≧70%) |
| C=CC(=O)N[C@@H]1CCCC[C@H]1Nc1nc(Nc2cc(C(=O)NOC)ccc2C)ncc1C(N)=O (racemic) [Compound I-256, Rac-trans-4-((2-acrylamidocyclohexyl)amino)-2-((5-(methoxycarbamoyl)-2-methylphenyl)amino)pyrimidine-5-carboxamide] | G (proived a mass modification ≦30%) |
| C=CC(=O)Nc1c(Nc2nc(Nc3cc(OC)ncc3C)ncc2C(F)(F)F)ccc(C)c1F [Compound I-367, N-(2-fluoro-6-((2-((2-methoxy-5-methylpyridin-4-yl)amino)-5-(trifluoromethyl)pyrimidin-4-yl)amino)-3-methylphenyl)acrylamide] | E (provided a mass modification of ≧70%) |
| C=CC(=O)Nc1cc(OC)ccc1Nc1nc(Nc2ccc3c(c2)CC(=O)N3CC)ncc1Cl [Compound I-166, N-(2-((5-chloro-2-((1-ethyl-2-oxoindolin-5-yl)amino)pyrimidin-4-yl)amino)-5-methoxyphenyl)acrylamide] | E (provided a mass modification of ≧70%) |
| C=CC(=O)Nc1ccccc1Nc1nc(N[C@H]2CCCN(C(=O)C(C)=O)C2)ncc1C(F)(F)F [Compound I-49, (S)—N-(2-((2-((1-(2-Oxopropanoyl)piperidin-3-yl)amino)-5-(trifluoromethyl)pyrimidin-4-yl)amino)phenyl)acrylamide] | E (provided a mass modification of ≧70%) |
| C=CC(=O)N[C@@H]1CCCC[C@H]1Oc1nc(Nc2cc(C(=O)NOC)ccc2C)ncc1C(N)=O (racemic) [Compound I-269, Rac-trans-4-((2-acrylamidocyclohexyl)oxy)-2-((5-(methoxycarbamoyl)-2-methylphenyl)amino)pyrimidine-5-carboxamide] | G (proived a mass modification ≦30%) |
| C=CC(=O)Nc1cc(C)ccc1Nc1nc(Nc2cc(OC)nc(N3CCN(C)CC3)c2)ncc1C(F)(F)F [Compound I-325, N-(2-((2-((2-methoxy-6-(4-methylpiperazin-1-yl)pyridin-4-yl)amino)-5-(trifluoromethyl)pyrimidin-4-yl)amino)-5-methylphenyl)acrylamide] | E (provided a mass modification of ≧70%) |
| C=CC(=O)Nc1cc(C)ccc1Nc1nc(Nc2cc(NC3CC3)nc(OC)c2)ncc1C(F)(F)F [Compound I-337, N-(2-((2-((2-(cyclopropylamino)-6-methoxypyridin-4-yl)amino)-5-(trifluoromethyl)pyrimidin-4-yl)amino)-5-methylphenyl)acrylamide] | E (provided a mass modification of ≧70%) |
| C=CC(=O)N[C@@H]1CCCC[C@H]1Nc1nc(Nc2cc(C(=O)NOC)ccc2C)ncc1Cl (racemic) [Compound I-188, Rac-trans-3-((4-((2-acrylamidocyclohexyl)amino)-5-chloropyrimidin-2-yl)amino)-N-methoxy-4-methylbenzamide] | F (provided a mass modification of 31-69%) |
| C=CC(=O)Nc1ccccc1Nc1nc(Nc2ccc(N(CCNC(=O)OC(C)(C)C)C(C)=O)cc2OC)ncc1Cl [Compound I-174, tert-butyl (2-(N-(4-((4-((2-acrylamidophenyl)amino)-5-chloropyrimidin-2-yl)amino)-3-methoxyphenyl)acetamido)ethyl)carbamate] | E (key: E: provided a mass modification of ≧70%; F: provided a mass modification of 31-69%; G: proived a mass modification ≦30%) |
| C=CC(=O)Nc1ccccc1Nc1nc(Nc2cc(C(N)=O)ccc2C(F)(F)F)ncc1Cl [Compound I-220, 3-((4-((2-acrylamidophenyl)amino)-5-chloropyrimidin-2-yl)amino)-4-(trifluoromethyl)benzamide] | E (key: E: provided a mass modification of ≧70%; F: provided a mass modification of 31-69%; G: proived a mass modification ≦30%) |
| C=CC(=O)N[C@H]1CCCC[C@@H]1Nc1nc(N[C@H]2CCCN(C(=O)CO)C2)ncc1C(F)(F)F (racemic) [Compound I-27, Rac-N-(2-((2-(((R)-1-(2-hydroxyacetyl)piperidin-3-yl)amino)-5-(trifluoromethyl)pyrimidin-4-yl)amino)-trans-cyclohexyl)acrylamide] | F (provided a mass modification of 31-69%) |
| C=CC(=O)Nc1cc(C)ccc1Nc1nc(Nc2cc(P(C)(C)=O)ncc2C)ncc1C(F)(F)F [Compound I-343, N-(2-((2-((2-(dimethylphosphoryl)-5-methylpyridin-4-yl)amino)-5-(trifluoromethyl)pyrimidin-4-yl)amino)-5-methylphenyl)acrylamide] | F (provided a mass modification of 31-69%) |
| C=CC(=O)Nc1cc(C)ccc1Nc1nc(Nc2cc(C(N)=O)ccn2)ncc1Cl [Compound I-238, 2-((4-((2-acrylamido-4-methylphenyl)amino)-5-chloropyrimidin-2-yl)amino)isonicotinamide] | E (provided a mass modification of ≧70%) |
| C=CC(=O)Nc1ccccc1Nc1nc(NC2CCN(C(C)=O)CC2)ncc1C(F)(F)F [Compound I-12, N-(2-((2-((1-acetylpiperidin-4-yl)amino)-5-(trifluoromethyl)pyrimidin-4-yl)amino)phenyl)acrylamide] | E (provided a mass modification of ≧70%) |
| C=CC(=O)Nc1ccccc1Nc1nc(Nc2ccc(N3CCC[C@H]3C(N)=O)cc2C#N)ncc1Cl [Compound I-177, (S)-1-(4-((4-((2-acrylamidophenyl)amino)-5-chloropyrimidin-2-yl)amino)-3-cyanophenyl)pyrrolidine-2-carboxamide] | E (provided a mass modification of ≧70%) |
| C=CC(=O)Nc1cc(C)ccc1Nc1nc(Nc2ccnc(F)c2)ncc1C(F)(F)F [Compound I-288, N-(2-((2-((2-Fluoropyridin-4-yl)amino)-5-(trifluoromethyl)pyrimidin-4-yl)amino)-5-methylphenyl)acrylamide] | E (provided a mass modification of ≧70%) |
| C=CC(=O)Nc1ccccc1Nc1nc(N[C@H]2CCCN(C(=O)[C@@H](O)CO)C2)ncc1C(F)(F)F [Compound I-50, N-(2-((2-(((S)-1-((S)-2,3-Dihydroxypropanoyl)piperidin-3-yl)amino)-5-(trifluoromethyl)pyrimidin-4-yl)amino)phenyl)acrylamide] | E (provided a mass modification of ≧70%) |
| C=CC(=O)Nc1ccccc1Nc1nc(Nc2cc(C(=O)NOCCO)ccc2OC)ncc1C(F)(F)F [Compound I-74, 3-((4-((2-Acrylamidophenyl)amino)-5-(trifluoromethyl)pyrimidin-2-yl)amino)-N-(2-hydroxyethoxy)-4-methoxybenzamide] | E (provided a mass modification of ≧70%) |
| C=CC(=O)Nc1ccccc1Nc1nc(Nc2cc(C(N)=O)ccn2)ncc1C(F)(F)F [Compound I-83, 2-((4-((2-Acrylamidophenyl)amino)-5-(trifluoromethyl)pyrimidin-2-yl)amino)isonicotinamide] | E (provided a mass modification of ≧70%) |

Source: patent US9796700B2 (Celgene CAR LLC, priority 2013, dated 2017)
